Where a name gives a salt, the structure may show the parent alone.

The experiment has as its system MIA PaCa-2 cells. Put plainly: MIA PaCa2 cell-based assay (1,536-well high-content imaging ALDEFLUOR assay). Details: species or system human. The settings on record: Homo sapiens, 0.5 h, ALDEFLUOR BAAA substrate 500 nM, 30 minutes. The method, then: Example 359. MIA PaCa2 Cell-Based Assay (In Vitro Assay)
1,536-Well High-Content Imaging ALDEFLUOR Assay
The ALDEFLUOR™ kit was purchased from […] Technologies (Vancouver, Canada; #01700). MIA PaCa-2 cells (5 μL; 1,000 cells/well) were dispensed into black, optical quality (cyclic olefin copolymer) clear bottom, medium binding TC treated 1,536-well plates (Aurora Microplates, Whitefish Mont.) using a Multidrop Combi dispenser (ThermoFisher) and incubated overnight (37° C., 5% CO2, 85% RH). Media (RPMI 1640 (Life Technologies, Carlsbad, Calif.), supplemented with 2 mM L-Glutamine (Life Technologies), 10% HyClone™ fetal bovine serum (FBS, GE Healthcare, Piscataway, N.J.) and 100 U/mL penicillin and 100 μg/mL streptomycin (Life Technologies)) was subsequently removed by centrifuging plates upside down using a plate adaptor to collect media. A solution of BAAA substrate ([…] Technologies) and Hoechst 33342 (ThermoFisher, final concentrations of 500 nM and 0.5 nM, respectively) in ALDEFLUOR™ buffer ([…] Technologies #01700) was dispensed onto cells using a Multidrop Combi followed by immediate transfer (23 nL) of compound or control solutions using a Wako Pin-tool (final percentage of DMSO in the cell plates was 0.5%). Unless otherwise noted, all compounds were assayed as 16-point dilutions spanning a final concentration range of 1.4 nM to 47.8 μM. The neutral and positive assay controls were DMSO and DEAB (4.6 μM), respectively. Cells were incubated for 30 minutes or the indicated amount of time at 37° C., 5% CO2, 85% RH to allow the conversion of BAAA into BAA. Supernatant was subsequently removed by centrifugation as described above, then ALDEFLUOR™ buffer (3 μl) was dispensed by Multidrop Combi before imaging on an IN Cell 2200 (GE Healthcare).
The above assay was modified for an online robotic screening system. After cell plating and overnight incubation, 4 μL of media were removed using a 64-tip metal aspirator head on a Wako aspirator station, leaving 1 μL remaining in the well, followed by a 4 μL dispense of BAAA and Hoechst 33342 in ALDEFLUOR™ buffer, for a final concentration of 500 nM and 0.5 nM, respectively Immediately following the dispense, 23 nL of compound or control solutions were transferred using a Wako Pin-tool. Cells were incubated for 30 minutes at 37° C., 5% CO2, 85% RH, followed by a 4 μL media removal using the Wako aspirator, and a subsequent 3 μL addition of ALDEFLUOR™ buffer. Plates were then immediately read on the IN Cell 2200 as described below.
Image Acquisition and Analysis
For images captured on the IN Cell 2200 widefield automated microscope, a 10×0.45 NA Plan Apo objective lens was used to capture the entire well of the 1,536-well plate using standard DAPI (390/18×, 432/48 m) and FITC (475/28×, 525/48 m) filter sets at 50 msec and 100 msec exposures, respectively. Images were subsequently analyzed using IN Cell Investigator v1.6.2 analysis software's canned Multi-Target Analysis algorithm (GE Healthcare). Hoechst stained nuclei were identified using top hat segmentation with a minimum area of 75 μm^2 and sensitivity of 93. BAA-retaining cells captured via FITC channel, were identified using multiscale top hat segmentation with a minimum area of 100 μm^2 and a sensitivity setting of 16. […] Data were plotted using GraphPad Prism software (GraphPad, San Diego, Calif.).
The IC50 is the concentration that gives 50% inhibition. For `N#CC1CCN(c2c(C(=O)N3CCN(C(=O)C4CC4)CC3)cnc3ccc(F)cc23)CC1` [Cpd. 302, 1-(3-(4-(cyclopropanecarbonyl)piperazine-1-carbonyl)-6-fluoroquinolin-4-yl)piperidine-4-carbonitrile], the IC50 was > 10 µM. Compound `CS(=O)(=O)N1CCN(c2c(C(=O)N3CCN(C(=O)C4CC4)CC3)cnc3ccc(F)cc23)CC1` [Cpd. 303, (4-(cyclopropanecarbonyl)piperazin-1-yl)(6-fluoro-4-(4-(methylsulfonyl)piperazin-1-yl)quinolin-3-yl)methanone] showed an IC50 of 1 to 10 µM. Take `CC(=O)N1CCN(c2c(C(=O)N3CCN(C(=O)C4CC4)CC3)cnc3ccc(F)cc23)CC1` [Cpd. 304, 1-(4-(3-(4-(cyclopropanecarbonyl)piperazine-1-carbonyl)-6-fluoroquinolin-4-yl)piperazin-1-yl)ethanone]: the IC50 was > 10 µM.

For the compound `CS(=O)(=O)N1CCN(C(=O)c2cnc3ccc(F)cc3c2N2CCC(C#N)CC2)CC1` [Cpd. 305, 1-(6-fluoro-3-(4-(methylsulfonyl)piperazine-1-carbonyl)quinolin-4-yl)piperidine-4-carbonitrile], the IC50 was > 10 µM. `CC(C)(C)c1ccc(-c2c(C(=O)N3CCN(S(C)(=O)=O)CC3)cnc3ccc(F)cc23)cc1` [Cpd. 306, (4-(4-(tert-butyl)phenyl)-6-fluoroquinolin-3-yl)(4-(methylsulfonyl)piperazin-1-yl)methanone]: the IC50 was < 0.5 µM. Consider `CS(=O)(=O)N1CCN(C(=O)c2cnc3ccc(F)cc3c2-c2ccc(C3(C#N)CCC3)cc2)CC1` [Cpd. 308, 1-(4-(6-fluoro-3-(4-(methylsulfonyl)piperazine-1-carbonyl)quinolin-4-yl)phenyl)cyclobutanecarbonitrile], for which the IC50 was < 0.5 µM. In the case of `CS(=O)(=O)N1CCN(C(=O)c2cnc3ccc(F)cc3c2-c2ccc(C3(C#N)CCCC3)cc2)CC1` [Cpd. 309, 1-(4-(6-fluoro-3-(4-(methylsulfonyl)piperazine-1-carbonyl)quinolin-4-yl)phenyl)cyclopentanecarbonitrile], the 50% inhibitory concentration (IC50) is < 0.5 µM.

In the case of `CC(C)(C#N)c1ccc(-c2c(C(=O)N3CCN(S(C)(=O)=O)CC3)cnc3ccc(F)cc23)c(F)c1` [Cpd. 311, 2-(3-fluoro-4-(6-fluoro-3-(4-(methylsulfonyl)piperazine-1-carbonyl)quinolin-4-yl)phenyl)-2-methylpropanenitrile], the IC50 is < 0.5 µM.

As for `N#CC1(c2ccccc2)CCN(c2c(C(=O)N3CCN(C(=O)C4CC4)CC3)cnc3ccc(Cl)cc23)CC1` [Cpd. 313, 1-(6-chloro-3-(4-(cyclopropanecarbonyl)piperazine-1-carbonyl)quinolin-4-yl)-4-phenylpiperidine-4-carbonitrile], the IC50 is < 0.5 µM.

In the case of `CS(=O)(=O)N1CCN(C(=O)c2cnc3ccc(F)cc3c2-c2ccc(C3(C#N)CC3)cc2F)CC1` [Cpd. 315, 1-(3-fluoro-4-(6-fluoro-3-(4-(methylsulfonyl)piperazine-1-carbonyl)quinolin-4-yl)phenyl)cyclopropanecarbonitrile], the half-inhibitory concentration (IC50) is < 0.5 µM. `CS(=O)(=O)N1CCN(C(=O)c2cnc3ccc(Cl)cc3c2N2CCC(C#N)(c3ccccc3)CC2)CC1` [Cpd. 316, 1-(6-chloro-3-(4-(methylsulfonyl)piperazine-1-carbonyl)quinolin-4-yl)-4-phenylpiperidine-4-carbonitrile]: the IC50 was < 0.5 µM. With `COc1ccc2ncc(C(=O)N3CCN(S(C)(=O)=O)CC3)c(N3CCC(C#N)(c4ccccc4)CC3)c2c1` [Cpd. 317, 1-(6-methoxy-3-(4-(methylsulfonyl)piperazine-1-carbonyl)quinolin-4-yl)-4-phenylpiperidine-4-carbonitrile], the IC50 was < 0.5 µM. For the compound `COc1ccc2c(N3CCC(C#N)(c4ccccc4)CC3)c(C(=O)N3CCN(S(C)(=O)=O)CC3)cnc2c1` [Cpd. 318, 1-(7-methoxy-3-(4-(methylsulfonyl)piperazine-1-carbonyl)quinolin-4-yl)-4-phenylpiperidine-4-carbonitrile], the IC50 is < 0.5 µM. With `CS(=O)(=O)N1CCN(C(=O)c2cnc3cc(F)c(F)cc3c2N2CCC(C#N)(c3ccccc3)CC2)CC1` [Cpd. 319, 1-(6,7-difluoro-3-(4-(methylsulfonyl)piperazine-1-carbonyl)quinolin-4-yl)-4-phenylpiperidine-4-carbonitrile], the IC50 is < 0.5 µM. In the case of `CS(=O)(=O)N1CCN(C(=O)c2cnc3c(F)cc(F)cc3c2N2CCC(C#N)(c3ccccc3)CC2)CC1` [Cpd. 320, 1-(6,8-difluoro-3-(4-(methylsulfonyl)piperazine-1-carbonyl)quinolin-4-yl)-4-phenylpiperidine-4-carbonitrile], the IC50 was < 0.5 µM. Regarding `COc1ccc2ncc(C(=O)N3CCN(S(C)(=O)=O)CC3)c(-c3ccc(C4(C#N)CC4)cc3)c2c1` [Cpd. 321, 1-(4-(6-methoxy-3-(4-(methylsulfonyl)piperazine-1-carbonyl)quinolin-4-yl)phenyl)cyclopropane-1-carbonitrile], the concentration for half-maximal inhibition (IC50) was < 0.5 µM. In the case of `COc1ccc2c(-c3ccc(C4(C#N)CC4)cc3)c(C(=O)N3CCN(S(C)(=O)=O)CC3)cnc2c1` [Cpd. 322, 1-(4-(7-methoxy-3-(4-(methylsulfonyl)piperazine-1-carbonyl)quinolin-4-yl)phenyl)cyclopropane-1-carbonitrile], the half-inhibitory concentration (IC50) was < 0.5 µM. Regarding `CS(=O)(=O)N1CCN(C(=O)c2cnc3cc(F)c(F)cc3c2-c2ccc(C3(C#N)CC3)cc2)CC1` [Cpd. 323, 1-(4-(6,7-difluoro-3-(4-(methylsulfonyl)piperazine-1-carbonyl)quinolin-4-yl)phenyl)cyclopropane-1-carbonitrile], the IC50 was < 0.5 µM. The value for `CS(=O)(=O)N1CCN(C(=O)c2cnc3c(F)cc(F)cc3c2-c2ccc(C3(C#N)CC3)cc2)CC1` [Cpd. 324, 1-(4-(6,8-difluoro-3-(4-(methylsulfonyl)piperazine-1-carbonyl)quinolin-4-yl)phenyl)cyclopropane-1-carbonitrile] was < 0.5 µM; that for `N#CC1(c2ccccc2)CCN(c2c(C(=O)Nc3cnn(CC(N)=O)c3)cnc3ccc(F)cc23)CC1` [Cpd. 352, N-(1-(2-amino-2-oxoethyl)-1H-pyrazol-4-yl)-4-(4-cyano-4-phenylpiperidin-1-yl)-6-fluoroquinoline-3-carboxamide] was < 0.5 µM. With `COc1ccc2ncc(C(=O)N3CCN(C(=O)C4CC4)CC3)c(N3CCC4(CC3)OCCO4)c2c1` [Example 1, (4-(cyclopropanecarbonyl)piperazin-1-yl)(6-methoxy-4-(1,4-dioxa-8-azaspiro[4.5]decan-8-yl)quinolin-3-yl)methanone, TFA], the IC50 fell in the range of 1 to 10 µM. The compound `Cc1ccc2ncc(C(=O)N3CCN(C(=O)C4CC4)CC3)c(N3CCC4(CC3)OCCO4)c2c1` [Example 30, (4-(cyclopropanecarbonyl)piperazin-1-yl)(6-methyl-4-(1,4-dioxa-8-azaspiro[4.5]decan-8-yl)quinolin-3-yl)methanone] had an IC50 of 1 to 10 µM. The value for `O=C(c1cnc2ccc(F)cc2c1N1CCC2(CC1)OCCO2)N1CCN(C(=O)C2CC2)CC1` [Example 31, (4-(cyclopropanecarbonyl)piperazin-1-yl)(6-fluoro-4-(1,4-dioxa-8-azaspiro[4.5]decan-8-yl)quinolin-3-yl)methanone] was 1 to 10 µM.

The record behind these values is patent US11795177B2, “Substituted quinoline analogs as aldehyde dehydrogenase 1A1 (ALDH1A1) inhibitors” (THE UNITED STATES OF AMERICA, AS REPRESENTED BY THE …, priority 2017, dated 2023).
